Laboratory results from patent publication US12077503B2, “Substituted cyclic amides and their use as herbicides” (FMC CORPORATION, priority 2015, dated 2024).

What was measured:
Type in all cases: in vivo
[1] = system: ragweed (common ragweed, Ambrosia elatior); experiment: Test A postemergence; conditions: postemergence
Procedure, shortened: (§1)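 Visual injury, scored on a 0–100 scale relative to untreated controls, was recorded about 10 d after application. Treatments were a preemergence soil spray over planted seeds or a postemergence spray on plants at the one- to two-leaf stage, 2 to 10 cm tall, all in loam soil–sand blend in the greenhouse.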

[2] = system: ryegrass, Italian (Italian ryegrass, Lolium multiflorum); experiment: Test A postemergence; conditions: postemergence
Procedure, shortened: as §1

[3] = system: Galium (catchweed bedstraw, Galium aparine); experiment: Test A postemergence; conditions: postemergence
Procedure, shortened: as §1

[4] = system: giant foxtail (Setaria faberii); experiment: Test A postemergence; conditions: postemergence
Procedure, shortened: as §1

corn (Zea mays) = experiment: Test A postemergence; conditions: postemergence
Procedure, shortened: as §1

[5] = system: barnyardgrass (Echinochloa crus-galli); experiment: Test A postemergence
Procedure, shortened: as §1

[6] = system: pigweed (Amaranthus retroflexus); experiment: Test A postemergence; conditions: postemergence
Procedure, shortened: as §1

[7] = system: wheat (Triticum aestivum); experiment: Test A postemergence; conditions: postemergence
Procedure, shortened: as §1

[8] = system: blackgrass (Alopecurus myosuroides); experiment: Test A postemergence
Procedure, shortened: as §1

Kochia (Kochia scoparia) [9] = experiment: Test A postemergence; conditions: postemergence
Procedure, shortened: as §1

[10] = system: ragweed (common ragweed, Ambrosia elatior); experiment: Test A preemergence
Procedure, shortened: as §1

[11] = system: ryegrass, Italian (Italian ryegrass, Lolium multiflorum); experiment: Test A preemergence
Procedure, shortened: as §1

[12] = system: giant foxtail (Setaria faberii); experiment: Test A preemergence
Procedure, shortened: as §1

[13] = system: barnyardgrass (Echinochloa crus-galli); experiment: Test A preemergence
Procedure, shortened: as §1

[14] = system: pigweed (Amaranthus retroflexus); experiment: Test A preemergence
Kochia (Kochia scoparia) [15] = experiment: Test A preemergence
Procedure, shortened: as §1

[16] = system: ducksalad (Heteranthera limosa); experiment: Test B flooded paddy test; conditions: Flood, 250 g ai/ha; 0 to 100 scale where 0 is no effect and 100 is complete control; 13 to 15 d
Procedure, shortened: (§2)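 Rating scale 0–100 (visual, vs untreated controls) after a 13–15 d greenhouse period; application to the flood layer, 3 cm above soil and maintained; plants at 2-leaf stage when treated.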

[17] = system: barnyardgrass (Echinochloa crus-galli); experiment: Test B flooded paddy test; conditions: Flood, 250 g ai/ha; 0 to 100 scale where 0 is no effect and 100 is complete control; 13 to 15 d
Procedure, shortened: as §2

[18] = system: sedge, umbrella (small-flower umbrella sedge, Cyperus difformis); experiment: Test B flooded paddy test; conditions: Flood, 250 g ai/ha; 0 to 100 scale where 0 is no effect and 100 is complete control; 13 to 15 d
Procedure, shortened: as §2

rice (Oryra sativa) = experiment: Test B flooded paddy test; conditions: Flood, 250 g ai/ha; 0 to 100 scale where 0 is no effect and 100 is complete control; 13 to 15 d
Procedure, shortened: as §2

[19] = system: lambsquarters (Chenopodium album); experiment: Test C preemergence; conditions: scale 0 to 100, 0 no effect, 100 complete control
Text: Seeds of plant species selected from blackgrass (Alopecurus myosuroides), ryegrass, Italian (Italian ryegrass, Lolium multiflorum), wheat (winter wheat, Triticum aestivum), Galium (catchweed bedstraw, Galium aparine), corn (Zea mays), crabgrass, large (large crabgrass, Digitaria sanguinalis), foxtail, giant (giant foxtail, Setaria faberii), johnsongrass (Sorghum halepense), lambsquarters (Chenopodium album), morningglory (Ipomoea coccinea), nutsedge, yellow (yellow nutsedge, Cyperus esculentus), pigweed (Amaranthus retroflexus), ragweed (common ragweed, Ambrosia elatior), soybean (Glycine max), barnyardgrass (Echinochloa crus-galli), oilseed rape (Brassica napus), waterhemp (common waterhemp, Amaranthus rudis) and velvetleaf (Abutilon theophrasti) were planted into a blend of loam soil and sand and treated preemergence with test chemicals formulated in a non-phytotoxic solvent mixture which included a surfactant.
At the same time, plants selected from these crop and weed species and also Kochia (Kochia scoparia), oat, wild (wild oat, Avena fatua), and chickweed (common chickweed, Stellaria media) were planted in pots containing Sunshine Redi-Earth® planting medium comprising spaghnum peat moss, vermiculite, starter nutrients and dolomitic limestone and treated with postemergence applications of test chemicals formulated in the same manner. Plants ranged in height from 2 to 18 cm (1- to 4-leaf stage) for postemergence treatments. Treated plants and controls were maintained in a greenhouse for 13 to 15 d, after which time all species were compared to controls and visually evaluated. Plant response ratings, summarized in Table C, are based on a scale of 0 to 100 where 0 is no effect and 100 is complete control. A dash (-) response means no test result.

[20] = 125 g ai/ha, visual injury rating on 0 to 100 scale (0 no effect, 100 complete control), approx. 10 d
[21] = 500 g ai/ha, 0 to 100 scale, 0 no effect, 100 complete control
[22] = 500 g ai/ha, postemergence, 0 to 100 scale, 0 no effect, 100 complete control
[23] = Postemergence, 125 g ai/ha, visual injury, 0 to 100 scale (0 no effect, 100 complete control), approx. 10 d
[24] = 125 g ai/ha, preemergence, 0 to 100 scale (0 no effect, 100 complete control)
[25] = Preemergence, 500 g ai/ha, 0 is no effect, 100 is complete control

Compound: CN1CC(c2cccc(OC(F)(F)C(F)F)c2)C(C(=O)Nc2ccc(F)cc2F)C1=O (stereo not shown) [Compound 393]
- Ragweed plant response rating [1, 20]: 0
- Plant response rating, Ragweed [1, 21]: 0
- Ryegrass, Italian plant response rating [2, 20]: 40
- Plant response rating, Ryegrass, Italian [2, 21]: 70
- Galium plant response rating [3, 20]: 70
- Plant response rating, Galium [3, 21]: 70
- Foxtail, Giant plant response rating [4, 20]: 90
- Plant response rating, Foxtail, Giant [4, 21]: 90
- Corn plant response rating (corn (Zea mays); [20]): 80
- Plant response rating, Corn (corn (Zea mays); [21]): 80
- Plant response rating, Barnyardgrass [5, 22]: 90
- Plant response rating, Barnyardgrass [5, 23]: 80
- Pigweed plant response rating [6, 20]: 50
- Plant response rating, Pigweed [6, 21]: 70
- Wheat plant response rating [7, 20]: 20
- Plant response rating, Wheat [7, 21]: 70
- Plant response rating, Blackgrass [8, 22]: 70
- Plant response rating, Blackgrass [8, 23]: 60
- Kochia plant response rating (Kochia (Kochia scoparia) [9]; [20]): 60
- Plant response rating, Kochia (Kochia (Kochia scoparia) [9]; [21]): 60
- Plant response rating, Ragweed [10, 24]: 0
- Ragweed plant response rating (0 to 100 scale) [10, 25]: 70
- Plant response rating, Ryegrass, Italian [11, 24]: 20
- Ryegrass, Italian plant response rating (0 to 100 scale) [11, 25]: 50
- Plant response rating, Foxtail, Giant [12, 24]: 90
- Foxtail, Giant plant response rating (0 to 100 scale) [12, 25]: 90
- Plant response rating, Barnyardgrass [13, 24]: 90
- Barnyardgrass plant response rating (0 to 100 scale) [13, 25]: 90
- Plant response rating, Pigweed [14, 24]: 50
- Pigweed plant response rating (0 to 100 scale) [14, 25]: 70
- Plant response rating, Kochia (Kochia (Kochia scoparia) [15]; [24]): 60
- Kochia plant response rating (0 to 100 scale) (Kochia (Kochia scoparia) [15]; [25]): 50
- Plant response rating, Ducksalad [16]: 90
- Plant response rating, Barnyardgrass [17]: 65
- Plant response rating, Sedge, Umbrella [18]: 0
- Plant response rating, Rice (rice (Oryra sativa)): 0
- Plant response rating, Lambsquarters ([19]; 31 g ai/ha): 55
- Plant response rating, Lambsquarters ([19]; 62 g ai/ha): 75
- Plant response rating, Lambsquarters ([19]; 125 g ai/ha): 75
- Plant response rating, Lambsquarters ([19]; 250 g ai/ha): 85
